The subject of one data set is NIH3T3 cells. Description: WST1 tetrazolium viability assay, NIH3T3. The data set is classed as cell-based, mouse. The settings on record: NIH3T3, 24 h, maximal dose used. How it is done: The inventors tested the effect of TLN68 on viability of NIH3T3, HDQ-P1 and HeLa cell lines by using a tetrazolium salt which is cleaved only by metabolically active cells. Cells were treated or not with a range of TLN68 doses during 24 h and viability was measured.

Data set [1] concerns p53 (endogenous nonsense mutation R213X) in HDQ-P1 cells. Description: Western blot of full-length p53 in HDQ-P1 cells. The settings on record: HDQ-P1, 48 h. The class given is cell-based, human. How it is done:
HDQ-P1 cells (R213X) were treated with G418 ([…]), or the selected molecules (TLN68 50 μM, TLN1399 50 μM, TLN236 30 μM and TLN309 40 μM), for 48 h. Cells were harvested by treatment with trypsin—EDTA (Invitrogen), lysed in 350 mM NaCl, 50 mM Tris—HCl pH 7.5, 1% NP-40, and protease inhibitor cocktail (Roche) and disrupted by passage through a syringe.
Total proteins were quantified with Bradford reagent (Biorad) and extracts were denatured by incubation in Laemmli buffer for 5 minutes at 90° C. The inventors subjected 30 μg of total protein from HDQ-1 cells to SDS—PAGE in 4/10% Bis—Tris gels. Proteins were transferred onto nitrocellulose membranes, according to the manufacturer's instructions (Biorad). Membranes were saturated by overnight incubation in 5% skimmed milk powder in PBS, and incubated for 1 hour with the primary monoclonal antibody, DO-1 (N-terminal epitope mapping between amino acid residues 11 and 25 of p53; Santa Cruz Biotechnologies, 1/400) or a monoclonal antibody against mouse actin (Millipore, 1/2000). After three washes in PBS supplemented with 0.1% Tween, the membranes were incubated with the secondary antibody [horseradish peroxidase-conjugated anti-mouse IgG ( 1/2500)] for 45 minutes. The membranes were washed five times and chemiluminescence was detected with ECL Prime Western Blotting Detection Reagents (Amersham, GE Healthcare). The signal was quantified with ImageJ software.

Another data set has as its system TP53-R213X mRNA. Description: RT-qPCR of mutant p53 mRNA in HDQ-P1 cells. The data set is classed as cell-based, human. The conditions noted are these: HDQ-P1, 48 hours; TLN68 80 μM, TLN309 40 μM; n=3. On the procedure: (§1) For the analysis of mRNA levels for p53 and its transcriptional target genes, Bax, the inventors extracted total RNA from HDQ-P1 cells that had or had not been treated with G418 (400 μM) or TLN68 (80 μM) for 48 hours (RNeasy Mini Kit, Qiagen). The RNA was treated with DNAse I (RNase-free DNase) and quantified with a Nanodrop spectrometer (ThermoScientific). The absence of RNA degradation was confirmed by agarose gel electrophoresis. The first-strand cDNA was synthesized from 2 μg of total RNA, with random primers and the SuperScript II Reverse Transcriptase (Invitrogen), as recommended by the manufacturer. Quantitative PCR was then carried out on equal amounts of the various cDNAs, with a CFX96 thermocycler (Biorad), and the accumulation of products was monitored with the intercalating dye FastStart Universal SYBRGreen Master (ROX) reagent (Roche). The inventors quantified mRNA levels relative to three reference mRNAs: RPL32, Hprt1 and HMBS. In each experiment, results are expressed relative to those for untreated cells, for which the value obtained was set to 1. Relative levels of gene expression were calculated at early stages of PCR, when the amplification was exponential and might, therefore, be correlated with the initial number of copies of the transcript. […] For the quantification of each mRNA, three independent experiments (from biological replicates) were performed in triplicate. […]

A further data set concerns Bax mRNA (target of p53). Description: RT-qPCR of Bax mRNA in HDQ-P1 cells. The data set is classed as cell-based, human. The conditions noted are these: HDQ-P1, TLN68 80 μM, 48 hours, n=3. How it is done:
as §1
On the technique in general: In qPCR the cycle at which signal appears reflects the starting amount.

SMILES strings stand for the structures.

The values below come from patent US20230183187A1, “QUINAZOLINE COMPOUNDS AS INHIBITORS OF PREMATURE TERMINATION CODONS” (CENTRE NATIONAL DE LA RECHERCHE SCIENTIFIQUE, priority 2020, published 2023).

Take `Cc1nc(NC(=N)N)nc2ccccc12` [TLN68]: in the data set on NIH3T3 cells, the viable cells was found to be 80%. Moreover, in data set [1] (G418 10 and 20 mM), the “level of induction of full-length p53 compared with G418” value is reported as “even higher to the one obtained in presence of G418”. Further, the “production of the full-length p53 (western blot)” value in data set [1] (TLN68 50 μM, TLN236 30 μM, TLN309 40 μM) is “stimulate the production of the full-length p53”. Also, in the data set on TP53-R213X mRNA, the “stabilisation of TP53-R213X mRNA relative to untreated” value was determined as 6 fold. Also, the “induction of bax mRNA level relative to untreated” value in the data set with Bax mRNA (target of p53) is 3 fold.
